PubChem BioAssay (NCI)
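Following 48 hours of exposure in 96-well plates, responses at five concentrations were used to interpolate endpoints linearly. The concentration for 50% growth inhibition is given as GI50. TGI is the concentration that stops growth completely.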

Tests used:
Test in all cases: DTP human tumour cell line panel, 48 h
786-0 renal = tested on: 786-0 renal
A549 NSCLC = tested on: A549 NSCLC
COLO 205 colon = tested on: COLO 205 colon
HL-60(TB) leukemia = tested on: HL-60(TB) leukemia
HOP-62 NSCLC = tested on: HOP-62 NSCLC
IGROV1 ovarian = tested on: IGROV1 ovarian
M14 melanoma = tested on: M14 melanoma
OVCAR-5 ovarian = tested on: OVCAR-5 ovarian
UO-31 renal = tested on: UO-31 renal
RXF 393 renal = tested on: RXF 393 renal

SMILES: O=C(/C=C/c1ccccc1)CC(=O)CCC(=O)Nc1ccc(Cl)cc1
- TGI (786-0 renal): > 100 µM
- TGI (A549 NSCLC): > 100 µM
- TGI (COLO 205 colon): > 100 µM
- TGI (HL-60(TB) leukemia): > 100 µM
- TGI (HOP-62 NSCLC): > 100 µM
- TGI (IGROV1 ovarian): > 100 µM
- TGI (M14 melanoma): > 100 µM
- TGI (OVCAR-5 ovarian): > 100 µM
- TGI (UO-31 renal): > 100 µM

SMILES: CSc1nnc(COc2ccc(Cl)cc2)o1
- TGI (786-0 renal): > 100 µM
- TGI (A549 NSCLC): > 100 µM
- TGI (COLO 205 colon): > 100 µM
- TGI (HOP-62 NSCLC): > 100 µM
- TGI (IGROV1 ovarian): > 100 µM
- TGI (M14 melanoma): > 100 µM
- TGI (OVCAR-5 ovarian): > 100 µM
- TGI (RXF 393 renal): > 100 µM
- TGI (UO-31 renal): > 100 µM

SMILES: CC(=O)OCC1OC(N2C(=O)C(=O)c3ccccc32)C(OC(C)=O)C(OC(C)=O)C1OC(C)=O (stereo not given)
- TGI (786-0 renal): > 100 µM
- TGI (A549 NSCLC): > 100 µM
- TGI (COLO 205 colon): > 100 µM
- TGI (HOP-62 NSCLC): > 100 µM
- TGI (IGROV1 ovarian): > 100 µM
- TGI (M14 melanoma): > 100 µM
- TGI (RXF 393 renal): > 100 µM
- TGI (UO-31 renal): > 100 µM

SMILES: Cc1c(C(=O)O)oc2ccc([N+](=O)[O-])cc12
- TGI (786-0 renal): > 100 µM
- TGI (A549 NSCLC): > 100 µM
- TGI (COLO 205 colon): > 100 µM
- TGI (HL-60(TB) leukemia): > 100 µM
- TGI (HOP-62 NSCLC): > 100 µM
- TGI (IGROV1 ovarian): > 100 µM
- TGI (M14 melanoma): > 100 µM
- TGI (OVCAR-5 ovarian): > 100 µM
- TGI (UO-31 renal): > 100 µM

SMILES: O=c1c(F)cn(Cc2ccccc2CCl)c(=O)n1Cc1ccccc1CCl
- GI50 (786-0 renal): 2.09 µM
- TGI (786-0 renal): 4.44 µM
- GI50 (A549 NSCLC): 1.83 µM
- TGI (A549 NSCLC): 4.29 µM
- GI50 (COLO 205 colon): 1.7 µM
- TGI (COLO 205 colon): 3.52 µM
- GI50 (HL-60(TB) leukemia): 1.51 µM
- TGI (HL-60(TB) leukemia): 3.63 µM
- GI50 (HOP-62 NSCLC): 2.35 µM
- TGI (HOP-62 NSCLC): 4.84 µM
- GI50 (IGROV1 ovarian): 1.33 µM
- TGI (IGROV1 ovarian): 2.99 µM
- GI50 (M14 melanoma): 1.69 µM
- TGI (M14 melanoma): 4.05 µM
- GI50 (OVCAR-5 ovarian): 5.07 µM
- TGI (OVCAR-5 ovarian): 11 µM
- GI50 (UO-31 renal): 1.99 µM
- TGI (UO-31 renal): 5.3 µM

SMILES: Cn1c2c(c3ccccc31)CCN(CCN1CCN(c3cccc(Cl)c3)CC1)C2=O
- TGI (786-0 renal): > 100 µM
- TGI (A549 NSCLC): > 100 µM
- TGI (COLO 205 colon): > 100 µM
- TGI (HL-60(TB) leukemia): 65.3 µM
- TGI (HOP-62 NSCLC): > 100 µM
- TGI (IGROV1 ovarian): > 100 µM
- TGI (M14 melanoma): > 100 µM
- TGI (RXF 393 renal): > 100 µM
- TGI (UO-31 renal): > 100 µM

SMILES: COc1ccc(C(=O)NCCN(C)C)c2nc3ccccc3nc12
- TGI (786-0 renal): > 59.9 µM
- TGI (A549 NSCLC): > 100 µM
- TGI (COLO 205 colon): > 26.1 µM
- TGI (HOP-62 NSCLC): 9.06 µM
- TGI (M14 melanoma): > 34.5 µM
- TGI (OVCAR-5 ovarian): 16 µM
- TGI (RXF 393 renal): 25.4 µM
- TGI (UO-31 renal): > 52 µM

SMILES: Oc1ccccc1-c1nn(CNc2ccccc2Cl)c(=S)o1
- GI50 (786-0 renal): > 100 µM
- TGI (786-0 renal): > 100 µM
- GI50 (A549 NSCLC): > 100 µM
- TGI (A549 NSCLC): > 100 µM
- GI50 (COLO 205 colon): 27 µM
- TGI (COLO 205 colon): > 100 µM
- GI50 (HOP-62 NSCLC): > 100 µM
- TGI (HOP-62 NSCLC): > 100 µM
- GI50 (IGROV1 ovarian): > 100 µM
- TGI (IGROV1 ovarian): > 100 µM
- GI50 (M14 melanoma): > 100 µM
- TGI (M14 melanoma): > 100 µM
- GI50 (OVCAR-5 ovarian): 37.2 µM
- TGI (OVCAR-5 ovarian): > 100 µM
- GI50 (RXF 393 renal): > 100 µM
- TGI (RXF 393 renal): > 100 µM
- GI50 (UO-31 renal): > 100 µM
- TGI (UO-31 renal): > 100 µM

SMILES: CCC(=O)Nc1nc2c(ncn2C2OC(COC(=O)CC)C(OC(=O)CC)C2OC(=O)CC)c(=O)[nH]1 (stereo not given)
- TGI (786-0 renal): > 100 µM
- TGI (A549 NSCLC): > 100 µM
- TGI (HL-60(TB) leukemia): > 100 µM
- TGI (HOP-62 NSCLC): > 100 µM
- TGI (IGROV1 ovarian): > 100 µM
- TGI (M14 melanoma): > 100 µM
- TGI (OVCAR-5 ovarian): > 100 µM
- TGI (RXF 393 renal): > 100 µM
- TGI (UO-31 renal): > 100 µM

SMILES: CC(C)(C)OC(=O)NCCCCCCCn1c2c(c3ccccc3c1=O)C(=O)c1ccccc1-2
- GI50 (786-0 renal): 23.2 µM
- TGI (786-0 renal): 55.4 µM
- GI50 (A549 NSCLC): 31.8 µM
- TGI (A549 NSCLC): > 100 µM
- GI50 (COLO 205 colon): 63.7 µM
- TGI (COLO 205 colon): > 100 µM
- GI50 (HL-60(TB) leukemia): 16.4 µM
- TGI (HL-60(TB) leukemia): 40.5 µM
- GI50 (IGROV1 ovarian): 26.9 µM
- TGI (IGROV1 ovarian): > 100 µM
- GI50 (M14 melanoma): 44.4 µM
- TGI (M14 melanoma): > 100 µM
- GI50 (OVCAR-5 ovarian): > 100 µM
- TGI (OVCAR-5 ovarian): > 100 µM
- GI50 (RXF 393 renal): 16.2 µM
- TGI (RXF 393 renal): 43.5 µM
- GI50 (UO-31 renal): 25.6 µM
- TGI (UO-31 renal): > 100 µM
